# Test results: publication PMC12656546, “Enterohepatic Recirculation-Mediated Reabsorption of Aristolochic Acid I: Revealed by Toxicokinetics and Metabolite Identification in Rats” (Toxics, 2025)
# Assay: Qualitative analysis of AAI and metabolites in bile of bile duct-cannulated rats
# Assay type: in vivo, F344 rats
# Details: 30 mg/kg AAI oral, bile collected 0–3 h, 3–6 h, 6–9 h, 9–12 h, qualitative UHPLC-Q-Exactive
# Protocol: Ten 6-week-old F344 rats were divided into a control group (n = 2) and a treatment group (n = 8), with equal numbers of males and females in each group. During the experiment, rats were fasted and had access to water ad libitum. Rats in the control group were administered with 0.5% CMC-Na suspension via gastric gavage. For the treatment group, rats were administered with 30 mg/kg of AAI by the same route. Rats underwent bile duct cannulation for bile sample collection. Bile samples were collected at consecutive intervals of 0–3 h, 3–6 h, 6–9 h and 9–12 h after administration.
# For each bile sample, a 200 μL aliquot of bile was mixed with an equal volume of a methanol/acetonitrile (1:1, v/v) solution. After vortexing for 2 min, the mixture was centrifuged at 13,200 rpm for 10 min. The precipitate was discarded, and the supernatant was dried under nitrogen gas. The dried residue was reconstituted in 80 μL of methanol, vortexed for 2 min, and centrifuged at 13,200 rpm for 15 min. The resulting supernatant was used for further analysis.
# Ultra-high-performance liquid chromatography (UHPLC) coupled with a Q-Exactive orbitrap mass spectrometer (Thermo Fisher Scientific, San Jose, CA, USA) was used to analyzed the metabolites of AAI in rat bile. An ACQUITY UPLC BEH C18 column (2.1 mm × 50 mm, 1.7 μm, Waters, Milford, MA, USA) was employed for chromatographic separation. The mobile phase consisted of water containing 5 mmol/L ammonium formate/0.1% formic acid (A) and acetonitrile (B).
# Metabolites in bile samples were analyzed using electrospray ionization (ESI) in both positive and negative ion modes. The spray voltage was set at 3500 V for positive mode and 3000 V for negative mode. The ion transfer tube temperature was maintained at 350 °C with a vaporizer temperature of 300 °C. The sheath gas and auxiliary gas flow rates were 35 Arb and 10 Arb. Full-scan MS data were acquired at a resolution of 35,000 within the mass range of m/z 100–1200. For MS/MS analysis, data-dependent acquisition (DDA) was performed at a resolution of 17,500 using high-energy collision dissociation (HCD). Post-acquisition data was imported into Compound Discoverer 2.1 software to identify AAI metabolites. Blank matrices were processed alongside samples to exclude the background interferences.
row,SMILES,detection in bile (biliary excretion)
1,COc1cccc2c1cc([N+](=O)[O-])c1c(C(=O)OC3OC(C(=O)O)C(O)C(O)C3O)cc3c(c12)OCO3 (stereo not drawn) [AAI-O-glucuronide],detectable in bile collected during four consecutive periods after oral administration
2,"COc1cccc2c1c(O)c1c3c(cc4c(c32)OCO4)C(=O)N1 [ALI-9-OH, 9-hydroxyaristolactam I]",detected in bile samples
3,"COc1cccc2c1cc1c3c(cc4c(c32)OCO4)C(=O)N1O [ALI-N-OH, N-hydroxyaristolactam I]",detected in bile samples
